Measured values published in paper PMC8042013 (Nature Communications, 2021).

The compounds below were run against T1, OsCERK1-ECD (Oryza sativa, UniProt A0A0P0XII1) (assay: microscale thermophoresis, label-free). Conditions: 50 mM Tris-HCl pH 7.8, 150 mM NaCl, 10 mM MgCl2, 0.05% Tween-20.
T1 construct: gene CERK1; N-terminal gp67 signal peptide for secretion, C-terminal His6; baculovirus, Trichoplusia ni High Five cells; secreted soluble protein
T1 sequence (A0A0P0XII1 19-240 limits assumed): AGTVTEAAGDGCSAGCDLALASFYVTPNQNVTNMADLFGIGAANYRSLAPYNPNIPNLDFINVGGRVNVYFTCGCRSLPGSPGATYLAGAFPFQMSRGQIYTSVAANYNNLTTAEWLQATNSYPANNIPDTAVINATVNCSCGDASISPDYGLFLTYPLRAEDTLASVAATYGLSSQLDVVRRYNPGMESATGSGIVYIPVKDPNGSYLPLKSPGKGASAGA
Type: binding

| SMILES | Kd [µM] |
| --- | --- |
| OC[C@H]1O[C@@H](O[C@@H]2[C@@H](O)[C@H](O[C@H]3[C@H](O)[C@@H](O)C(O)O[C@@H]3CO)O[C@H](CO)[C@H]2O)[C@H](O)[C@@H](O)[C@@H]1O (stereo partly drawn) [BGTRIA, 3^2-β-D-glucosyl-cellobiose] | 4.38 ± 0.58 |
| OC[C@H]1O[C@@H](O[C@H]2[C@H](O)[C@@H](O)[C@H](O[C@H]3[C@H](O)[C@@H](O)C(O)O[C@@H]3CO)O[C@@H]2CO)[C@H](O)[C@@H](O)[C@@H]1O (some centres unmarked) [CTR, cellotriose] | 4.28 ± 1.67 |
| OC[C@H]1O[C@@H](O[C@H]2[C@H](O)[C@@H](O)[C@H](O[C@H]3[C@H](O)[C@@H](CO)OC(O)[C@@H]3O)O[C@@H]2CO)[C@H](O)[C@@H](O)[C@@H]1O (stereo partly drawn) [BGTRIB, 3^1-β-D-cellobiosyl-glucose] | 1.95 ± 0.45 |
| OC[C@H]1O[C@@H](O[C@H]2[C@H](O)[C@@H](O)[C@H](O[C@H]3[C@H](O)[C@@H](O)[C@H](O[C@H]4[C@H](O)[C@@H](CO)OC(O)[C@@H]4O)O[C@@H]3CO)O[C@@H]2CO)[C@H](O)[C@@H](O)[C@@H]1O (stereo partly drawn) [BGTETB, 3^1-β-D-cellotriosyl-glucose] | 2.9 ± 0.57 |
| OC[C@H]1O[C@@H](O[C@H]2[C@H](O)[C@@H](O)[C@H](O[C@H]3[C@H](O)[C@@H](O)[C@H](O[C@H]4[C@H](O)[C@@H](O)C(O)O[C@@H]4CO)O[C@@H]3CO)O[C@@H]2CO)[C@H](O)[C@@H](O)[C@@H]1O (some centres unmarked) [CTE, cellotetraose] | 2.84 ± 0.89 |
